Test results as given in patent US5211944A, “Proanthocyanidin polymers having antiviral activity and methods of obtaining same” (Shaman Pharmaceuticals, Inc., priority 1991, dated 1993).

What was measured:
[1] = system: Herpes Simplex virus; details: Beladi et al., 1977; in vitro; cited from earlier work
[2] = system: Influenza viruses; details: cited from earlier work
[3] = system: Herpes simplex virus; details: cited from earlier work
[4] = Uninfected toxicity controls, topical treatment (HSV-2 study); type: in vivo, Swiss Webster mice; details: 5% topical
Procedure: (§1) Groups of 5 mice were sham-infected using the process described above for virus infection, except that no virus was present for the final step. These mice were treated the same way and at the same times as above. Mice were checked daily for survival, and weights were recorded before the first (day 0) and after the last (day 8) treatment.
The efficacy of proanthocyanidin polymer A is compared with ganciclovir and acyclovir. Both ganciclovir powder and acyclovir cream were obtained commercially. Squibb cream base #8, which served as a vehicle and as the topical placebo control, was also commercially obtained.
The methods of infecting the mice, setting toxicity control and the parameters measured to evaluate the infection were the same as described above for the intraperitoneal tests. Topical treatments on the day of infection were given at +6 hours. They were then given twice daily for 7 more days.

[5] = system: Herpes Simplex Virus Type 2 (HSV-2); test: HSV-2 vaginitis in mice, topical treatment; type: in vivo, Swiss Webster mice
[6] = Uninfected toxicity controls, i.p. treatment (HSV-2 study); type: in vivo, Swiss Webster mice; details: 30 mg/kg/day i.p.
Procedure: Six hours after virus infection, intraperitoneal (i.p.) injections were administered using proanthocyanidin polymer A, ganciclovir, or placebo. Treatments were also given i.p. twice daily on days 1 through 7 after virus challenge. The daily dose of each compound was 30 mg/kg/day, with 15 mg/kg given at each injection. Since on day 0 of the infection only one dose was given, the daily dose for that day was 15 mg/kg/day.
as §1

[7] = system: Herpes Simplex Virus Type 2 (HSV-2); test: HSV-2 vaginitis in mice, intraperitoneal treatment; type: in vivo, Swiss Webster mice; details: 30 mg/kg/day i.p.
[8] = system: Herpes Simplex virus; details: HEp-2 cells; Beladi et al.; cited from earlier work

O=c1cc(-c2ccc(O)cc2)oc2cc(O)cc(O)c12 [Apigenin]
virus-inactivating (viricidal) activity [1]: only a slight effect

CC(N)C12CC3CC(CC(C3)C1)C2 (racemic) [Rimantidine]
central nervous system side effects [2]: not associated with the central nervous system side-effects
effect on fever duration and respiratory symptoms, versus amantadine [2]: shows a similar effect

Nc1nc2c(ncn2COCCO)c(=O)[nH]1 [Acyclovir]
topical effectiveness [3]: not effective topically when used against recurrent genital infections
Host Wt. Change ([4]; day 8 minus day 0): +2.0 grams
Mean Day to Death ([4]; uninfected toxicity controls): > 21 days
Survivors/Total ([4]; uninfected toxicity controls): 5/5
survival ([4]; mouse, in vivo, topical or ocular, uninfected toxicity controls, read-out: Survivors (%)): 100%
lesion formation in infected animals ([5]; 5% cream): nearly completely prevented lesion formation
Average Lesion Score ([5]; 5% topical, day 3): 0.2 ± 0.2
Average Lesion Score ([5]; 5% topical, day 4): 0.1 ± 0.2
Average Lesion Score ([5]; 5% topical, day 5): 0.0 ± 0.0
Average Lesion Score ([5]; 5% topical, day 6): 0.0 ± 0.0
Average Lesion Score ([5]; 5% topical, day 7): 0.0 ± 0.0
Average Lesion Score ([5]; 5% topical, day 8): 0.1 ± 0.2
Average Lesion Score ([5]; 5% topical, day 9): 0.0 ± 0.0
Average Lesion Score ([5]; 5% topical, day 10): 0.0
Average Lesion Score ([5]; 5% topical, day 11): 0.0 ± 0.0
Average Lesion Score ([5]; 5% topical, day 12): 0.0 ± 0.0
Average Lesion Score ([5]; 5% topical, day 13): 0.0 ± 0.0
Average Lesion Score ([5]; 5% topical, day 14): 0.0 ± 0.0
No. of Mice W/O Lesion ([5]; 5% topical, day 14 of the infection): 10/10
Virus Titer (Day 2) ([5]; 5% topical, vaginal): 0.6 ± 0.2 Log 10 50% cell culture infectious dose per ml
Mean Day to Death ([5]; 5% topical, virus-infected): > 21 days
Survivors (%) ([5]; 5% topical, virus-infected): 100%
Survivors/Total ([5]; 5% topical, virus-infected): 10/10

Nc1ncnc2c1ncn2[C@@H]1O[C@H](CO)[C@@H](O)[C@@H]1O [Vidarabine, adenine arabinoside]
topical effectiveness [3]: not effective topically against herpes labialis or other skin/genital infections

Nc1nc(O)c2ncn(COC(CO)CO)c2n1 [Ganciclovir]
tolerability in toxicity control mice [6]: gained less weight than placebo controls
Host Wt. Change ([6]; day 8 minus day 0): +1.0 grams
Mean Day to Death ([6]; uninfected toxicity controls): > 21 days
Survivors/Total ([6]; uninfected toxicity controls): 5/5
survival ([6]; mouse, in vivo, ip, uninfected toxicity controls, read-out: Survivors (%)): 100%
Average Lesion Score ([7]; day 3): 0.1 ± 0.2
Average Lesion Score ([7]; day 4): 0.2 ± 0.2
Average Lesion Score ([7]; day 5): 0.2 ± 0.2
Average Lesion Score ([7]; day 6): 0.2 ± 0.2
Average Lesion Score ([7]; day 7): 0.2 ± 0.2
Average Lesion Score ([7]; day 8): 0.3 ± 0.4
Average Lesion Score ([7]; day 9): 0.4 ± 0.3
Average Lesion Score ([7]; day 10): 0.5 ± 0.5
Average Lesion Score ([7]; day 12): 0.9 ± 0.2
Average Lesion Score ([7]; day 13): 0.6 ± 0.6
Average Lesion Score ([7]; day 14): 0.6 ± 0.6
Average Lesion Score, Grand Avg. ([7]; days 3-14): 0.4 ± 0.2
Virus Titer (Day 3) ([7]; vaginal swab): 1.7 ± 1.0 Log10 50% cell culture infectious dose per ml
Mean Day to Death ([7]; virus-infected): > 21 days
Survivors (%) ([7]; virus-infected): 100%
Survivors/Total ([7]; virus-infected): 10/10

O=c1c(O)c(-c2ccc(O)c(O)c2)oc2cc(O)cc(O)c12 [quercetin]
inhibitory effect on virus multiplication [8]: only a slight inhibitory effect on virus multiplication
